The values that follow come from PMC3059353 (Biochemistry, 2011).

The experiment addresses T1, adenine deaminase (ADE) (Escherichia coli, UniProt P31441).
T1 sequence (P31441 1-588): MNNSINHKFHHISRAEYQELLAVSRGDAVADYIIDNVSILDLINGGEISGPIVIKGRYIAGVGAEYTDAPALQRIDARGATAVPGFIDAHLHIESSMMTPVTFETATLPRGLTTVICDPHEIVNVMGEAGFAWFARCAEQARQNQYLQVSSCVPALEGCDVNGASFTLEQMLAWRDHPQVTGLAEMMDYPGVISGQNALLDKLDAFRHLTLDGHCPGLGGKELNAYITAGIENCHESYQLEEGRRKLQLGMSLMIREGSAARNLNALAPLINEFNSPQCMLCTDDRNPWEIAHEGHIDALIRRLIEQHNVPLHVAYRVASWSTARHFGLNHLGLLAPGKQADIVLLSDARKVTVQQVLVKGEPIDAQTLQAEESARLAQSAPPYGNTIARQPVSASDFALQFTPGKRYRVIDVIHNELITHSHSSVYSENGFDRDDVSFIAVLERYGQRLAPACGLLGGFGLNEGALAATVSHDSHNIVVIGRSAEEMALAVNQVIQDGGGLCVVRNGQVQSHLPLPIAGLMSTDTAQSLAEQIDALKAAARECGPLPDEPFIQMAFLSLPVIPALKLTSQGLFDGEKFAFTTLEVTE
The experiment can be described thus: GDH-coupled adenine deamination assay after […] h incubation with Mn/Mn-ADE. In kind it is biochemical.

The structures appear in SMILES notation.

Turning to `Clc1ncnc2[nH]cnc12` [6-chloropurine], the Ki (as a rule, the equilibrium dissociation constant of an inhibitor or competing ligand from its target) turned out to be 130 ± 15 nM.
